# Experimental data reported in US12152034B2, “FGFR inhibitors and methods of making and using the same” (Relay Therapeutics, Inc., priority 2020, dated 2024).
# “And” between values parts separate entries of the source, which are not always exact repeats. Equal values may be shown once. “Also recorded” adds a separate entry of the source. Read-outs that look alike come from different tables or passages of the source.
# Experiments:
# Format in all cases: physicochemical
# [1] = Storage at 40° C./75% RH for 7 days (one week), form checked by XRPD; settings: for XRPD after storage at 40° C./75% RH for 7 days: one week (7 days); for Storage at 40° C./75% RH for one week (row head not given): Compound IV salts; for Storage at 40° C./75% RH for one week (row head not given) / Storage at 40° C./75% RH for 7 days: form by XRPD; for Storage at 40° C./75% RH for 7 days: Compound III salts
# Description: The suspensions were then cooled down to 5° C. at 0.1° C./min and were held at this temperature for 16 hrs. Stirring (500 rpm) was maintained throughout. Any gums that formed were maturated between 25 and 50° C. (4 hours at each temperature for 24 hrs). The suspensions were isolated by filtration under suction and air dried then analysed by XRPD. Any new patterns identified by XRPD were analysed further by NMR, TGA, DSC and stability at 40 C/75% RH for 1 week.
# [2] = Solubility measurements in SGF, FeSSIF and FaSSIF with XRPD of residual solids; settings: for solubility in FeSSIF (in words): simulated fed state intestinal fluid; for solubility in all media (in words): FeSSIF and FaSSIF; for Average Solubility / XRPD of residual solid / pH at 24 hrs / Solubility: Compound III-1, HCl and sulfate salts; for Solubility: single replicate
# Text: The results from the solubility measurements in simulated gastric fluid (SGF), simulated fed state conditions in the small intestines (FeSSIF), and simulated fasting state conditions in the small intestines fluid (FaSSIF) are summarised in Table 12. The salts show reduced solubility in SGF compared to the free form.
# Crystalline FB Form A, HCl Form A, and the sufate salt Form A were scaled up for solubility analysis.
# HCl Form A was successfully scaled up for solubility analysis.
# [3] = Solubility assessment in solvents by aliquot addition (5-40 vol, 25° C., then heating)
# Description: Compound II-1 (40 mg) was treated with an aliquot of solvent (200 μl for 5 vol, 400 μl for 10 vol, 800 μl for 20 vol) and left to stir at 25° C. for 15 minutes. After 15 minutes, suspensions were treated with another aliquot of solvent and left to stir for the same duration again. Any solutions were removed from stirring and further solvent additions. This procedure was repeated up to 40 vol.
# At 40 vol, any remaining suspensions were heated to 40° C. at a rate of 10° C./min. Samples that remained as suspensions at 40° C. were moved to the maturation chamber (RT/50° C.) for 4 days. All solutions from solvent additions were heated to 50° C. before cooling to 5° C. at a rate of 0.1° C./min, then held at 5° C. overnight. […]
# [4] = simulated fasting state intestinal fluid
smiles,measurement,setting,value
C#Cc1cc(C)c(-c2c(-c3ccc(Oc4nccc(C)n4)c(F)c3)c3c(C)ncnc3n2C)c(C)n1.Cc1ccc(S(=O)(=O)O)cc1 [Compound IV-3],XRPD after storage at 40° C./75% RH for 7 days,[1]; listed as Compound IV pTSA Form A,pTSA Form B
same,XRPD after storage at 40° C./75% RH for 7 days,[1]; listed as Compound IV-1 tosylate salt,change form
same,XRPD of residual solids after solubility measurement,[2]; FaSSIF,remained unchanged
same,XRPD of residual solids after solubility measurement,[2]; FeSSIF,too poorly crystalline to assign
same,XRPD of residual solids after solubility measurement,[2]; SGF,remained unchanged
"C#Cc1cc(C)c(-c2c(-c3ccc(Oc4nccc(C)n4)c(F)c3)c3c(C)ncnc3n2C)c(C)n1 [Compound IV-1, 6-(6-ethynyl-2,4-dimethylpyridin-3-yl)-5-(3-fluoro-4-((4-methylpyrimidin-2-yl)oxy)phenyl)-4,7-dimethyl-7H-pyrrolo[2,3-d]pyrimidine]",Observation after treatment,"[3]; 2-Propanol, after cooling from 50° C. to 5° C.",Clear solution
same,Observation after treatment,"[3]; 10% Water/IPA, after cooling from 50° C. to 5° C.",Clear solution
same,Observation after treatment,"[3]; 10% Water/MeCN, after cooling from 50° C. to 5° C.",Clear solution
same,solubility in the solvents tested (in words),"[3]; 13 solvents, up to 40 vol",soluble in all but three of the solvents tested
same,Observation after treatment,"[3]; Acetone, after cooling from 50° C. to 5° C.",Clear solution
same,Observation after treatment,"[3]; Ethanol, after cooling from 50° C. to 5° C.",Clear solution
same,Observation after treatment,"[3]; Ethyl acetate, after cooling from 50° C. to 5° C.",Clear solution
same,Observation after treatment,"[3]; Isopropyl acetate, after cooling from 50° C. to 5° C.",Clear solution
same,Observation after treatment,"[3]; MEK, after cooling from 50° C. to 5° C.",Clear solution
same,Observation after treatment,"[3]; Methanol, after cooling from 50° C. to 5° C.",Clear solution
same,Observation after treatment,"[3]; TBME, 40 vol, after maturation (RT/50° C.) 4 days",Suspension
same,Observation after treatment,"[3]; THF, after cooling from 50° C. to 5° C.",Clear solution
same,Observation after treatment,"[3]; Water, 40 vol, after maturation (RT/50° C.) 4 days",Suspension
same,Observation after treatment,"[3]; n-Heptane, 40 vol, after maturation (RT/50° C.) 4 days",Suspension
same,XRPD of residual solids after solubility measurement,"[2]; all media (SGF, FeSSIF, FaSSIF)",remained unchanged
same,solubility in FaSSIF (in words),[2]; [4],lowest solubility
C#Cc1cc(OC)c(-c2c(-c3ccc(Oc4nccc(C)n4)c(F)c3)c3c(C)ncnc3n2C)cn1.O=C(O)C(O)C(O)C(=O)O [Compound III-6],XRPD after storage at 40° C./75% RH for 7 days,[1],No change in form
C=C(C)C(=O)Nc1ccc(-c2c(C3=CC[C@H](C(=O)N4CCCC4)CC3)c3c(N)ncnc3n2C)c(C)c1.Cc1ccc(S(=O)(=O)O)cc1 [Compound II-4],XRPD after storage at 40° C./75% RH for 7 days,[1]; listed as Compound II pTSA Form A,XRPD unchanged
same,XRPD after storage at 40° C./75% RH for 7 days,[1]; listed as Compound II pTSA Form B,conversion to pTSA Form A; also recorded: Converted to pTSA
same,XRPD after storage at 40° C./75% RH for 7 days,[1]; listed as Compound II pTSA Form C,conversion to pTSA Form A; also recorded: Converted to pTSA
same,XRPD after storage at 40° C./75% RH for 7 days,[1]; listed as Compound II-1 tosylate salt,no change
same,solubility in FaSSIF (in words),[2],highest solubility
Br.C=C(C)C(=O)Nc1ccc(-c2c(C3=CC[C@H](C(=O)N4CCCC4)CC3)c3c(N)ncnc3n2C)c(C)c1 [Compound II-3],XRPD after storage at 40° C./75% RH for 7 days,[1],convert to an amorphous form
C#Cc1cc(C)c(-c2c(-c3ccc(Oc4nccc(C)n4)c(F)c3)c3c(C)ncnc3n2C)c(C)n1.O=S(=O)(O)c1ccccc1 [Compound IV-5],XRPD after storage at 40° C./75% RH for 7 days,[1],change form
C#Cc1cc(OC)c(-c2c(-c3ccc(Oc4nccc(C)n4)c(F)c3)c3c(C)ncnc3n2C)cn1.O=S(=O)(O)O [Compound III-4],XRPD after storage at 40° C./75% RH for 7 days,[1]; listed as Compound III-1 sulfate salt,small changes in the XRPD diffractogram
same,XRPD of residual solids after solubility measurement,[2]; FaSSIF,too poorly crystalline to assign
same,solubility in FaSSIF (in words),[2]; [4],slightly more soluble than the chloride salt
same,solubility in FeSSIF (in words),[2],slightly more soluble than the chloride salt
C#Cc1cc(C)c(-c2c(-c3ccc(Oc4nccc(C)n4)c(F)c3)c3c(C)ncnc3n2C)c(C)n1.CS(=O)(=O)O [Compound IV-4],XRPD after storage at 40° C./75% RH for 7 days,[1],lose crystallinity
C#Cc1cc(C)c(-c2c(-c3ccc(Oc4nccc(C)n4)c(F)c3)c3c(C)ncnc3n2C)c(C)n1.Cl [Compound IV-2],XRPD after storage at 40° C./75% RH for 7 days,[1],no change to form
same,XRPD of residual solids after solubility measurement,[2]; FaSSIF,converted to free form Form A
same,XRPD of residual solids after solubility measurement,[2]; FeSSIF,converted to free form Form A
same,solubility in all media (in words),[2]; SGF,more soluble than the tosylate salt
same,solubility in SGF (in words),[2]; simulated gastric fluid,completely dissolved
C=C(C)C(=O)Nc1ccc(-c2c(C3=CC[C@H](C(=O)N4CCCC4)CC3)c3c(N)ncnc3n2C)c(C)c1.Cl [Compound II-2],XRPD after storage at 40° C./75% RH for 7 days,[1],no change
C#Cc1cc(OC)c(-c2c(-c3ccc(Oc4nccc(C)n4)c(F)c3)c3c(C)ncnc3n2C)cn1.O=S(=O)(O)O [SO4 Form A],Average Solubility,[2]; FaSSIF,1950 µg/mL
same,XRPD of residual solid,[2]; FaSSIF,Poorly crystalline
same,pH at 24 hrs,[2]; FaSSIF,2.6 and 2.7
same,Solubility,[2]; FaSSIF,2000 µg/mL and 1900 µg/mL
same,Average Solubility,[2]; FeSSIF,230 µg/mL
same,XRPD of residual solid,[2]; FeSSIF,FB Form C
same,pH at 24 hrs,[2]; FeSSIF,4.4
same,Solubility,[2]; FeSSIF,240 µg/mL and 220 µg/mL
same,Average Solubility,[2]; SGF,>10500 µg/mL
same,pH at 24 hrs,[2]; SGF,1.7
same,Solubility,[2]; SGF,>10200 µg/mL and >10700 µg/mL
C=C(C)C(=O)Nc1ccc(-c2c(C3=CC[C@H](C(=O)N4CCCC4)CC3)c3c(N)ncnc3n2C)c(C)c1.O=S(=O)(O)c1ccccc1 [Compound II-6],XRPD after storage at 40° C./75% RH for 7 days,[1],no change
same,solubility in all media (in words),[2]; SGF,low solubility
C#Cc1cc(OC)c(-c2c(-c3ccc(Oc4nccc(C)n4)c(F)c3)c3c(C)ncnc3n2C)cn1.CS(=O)(=O)O [Compound III-5],XRPD after storage at 40° C./75% RH for 7 days,[1],lose crystallinity
C#Cc1cc(C)c(-c2c(-c3ccc(Oc4nccc(C)n4)c(F)c3)c3c(C)ncnc3n2C)c(C)n1.O=S(=O)(O)c1ccccc1 [BSA Form A],Storage at 40° C./75% RH for one week (row head not given),[1],Change in form -
C#Cc1cc(C)c(-c2c(-c3ccc(Oc4nccc(C)n4)c(F)c3)c3c(C)ncnc3n2C)c(C)n1.Cc1ccc(S(=O)(=O)O)cc1 [pTSA Form A],Storage at 40° C./75% RH for one week (row head not given),[1],Change in form -
C#Cc1cc(OC)c(-c2c(-c3ccc(Oc4nccc(C)n4)c(F)c3)c3c(C)ncnc3n2C)cn1.O=C(O)C(O)C(O)C(=O)O [TAR Form A],Storage at 40° C./75% RH for 7 days,[1],No change
Br.C#Cc1cc(OC)c(-c2c(-c3ccc(Oc4nccc(C)n4)c(F)c3)c3c(C)ncnc3n2C)cn1 [Compound III-3],XRPD after storage at 40° C./75% RH for 7 days,[1],change form
C#Cc1cc(C)c(-c2c(-c3ccc(Oc4nccc(C)n4)c(F)c3)c3c(C)ncnc3n2C)c(C)n1.Cl [HC1 Form A],Storage at 40° C./75% RH for one week (row head not given),[1],Reduced crystallinity -
C#Cc1cc(OC)c(-c2c(-c3ccc(Oc4nccc(C)n4)c(F)c3)c3c(C)ncnc3n2C)cn1.Cl [Compound III-2],XRPD after storage at 40° C./75% RH for 7 days,[1]; listed as Compound III HCl Form A,converting to HCl Form B
same,XRPD after storage at 40° C./75% RH for 7 days,[1]; listed as Compound III HCl Form B,large reduction in crystallinity
same,XRPD after storage at 40° C./75% RH for 7 days,[1]; listed as Compound III HCl Form D,no change in form
same,XRPD after storage at 40° C./75% RH for 7 days,[1]; listed as Compound III HCl Patterns 3 and 5,no change in form
same,XRPD after storage at 40° C./75% RH for 7 days,[1]; listed as Compound III-1 chloride salt,change form
same,XRPD of residual solids after solubility measurement,[2]; FaSSIF,new form
same,solubility in FeSSIF (in words),[2],lower solubility than the free form
C=C(C)C(=O)Nc1ccc(-c2c(C3=CC[C@H](C(=O)N4CCCC4)CC3)c3c(N)ncnc3n2C)c(C)c1.O=C(O)/C=C/C(=O)O [Compound II-7],XRPD after storage at 40° C./75% RH for 7 days,[1],no change
Br.C#Cc1cc(OC)c(-c2c(-c3ccc(Oc4nccc(C)n4)c(F)c3)c3c(C)ncnc3n2C)cn1 [HBr Form A],Storage at 40° C./75% RH for 7 days,[1],Change in form -
